Results taken from patent US8859625B2, “Methods to prepare penta-1,4-dien-3-ones and substituted cyclohexanones and derivatives with antitumoral and antiparasitic properties, the compounds and their uses” (Universidade Bandeirante de Sao Paulo-Academia, Paulista …, priority 2006, dated 2014).
Values after ≈ are worked out from the molar mass of the structure shown.

Legend:
B16F10 melanoma = experiment: Cell cycle phases by flow cytometry of melanoma dorsal tumors treated for 14 days; assay type: in vivo, C57BL/6J mice; conditions: 15 mg/kg HB-1 diluted in Miglyol 810, intraperitoneal
Description: Determination of Cell Cycle Phases Through Flow Cytometry of Melanoma Dorsal Tumors Treated for 14 Days with the HB-1 Compound by the Intraperitoneal Route.
Aliquots of the tumoral cells suspensions (10^6 cells/mL) for the control group that received Miglyol 810® vehicle and of the animals treated with the HB-1 compound for 14 days by the intraperitoneal route were immediately frozen in citrate (2 mM), sucrose (25 mM), and 0.05% dimethyl sulfoxide (DMSO) buffer, kept in liquid nitrogen up to the moment of use. After sample thawing in an ice bath, the cells were incubated with 375 μL of 0.03 g/L trypsin (Sigma) for 10 minutes, at room temperature, and neutralized with 0.5 g/L trypsin inhibitor (Sigma), 0.1 g/L ribonuclease A (Sigma), and 1.2 g/L spermine (Sigma). The samples were analysed by a flow cytometer (Becton-Dickson) and the percentage of cells was evaluated for the different phases of the cell cycle, apoptosis level (Sub-G1), and DNA content in phase S, quiescent cells (G0/G1), and cells in premytosis (G2/M).

[1] = tested on: peritoneal normal macrophages; experiment: Cytotoxic effect on peritoneal normal macrophages by the MTT method; assay type: cell-based, Balb-C mice; conditions: Mus musculus, Macrophage, diluted in Miglyol 810, 24 hours
Description: Cytotoxic Effect of HB-1 Compound on Peritoneal Normal Macrophages Assessed by the MTT Method.
Peritoneal macrophages were obtained from normal Balb-C mice through the following procedure: abdominal cavities of the animals were opened under sterile conditions under a laminar flow and exposed. A 2 mL volume of saline solution, containing 5000 U frosty heparin (Liquemine-Roche), was injected into the cavity, followed by a massage and collection of the peritoneal wash irrigation liquid, centrifuged at 2000 rpm for 10 minutes at 4° C.
The suspension was resuspended with RPMI-1640 culture medium supplemented with 10% bovine fetal serum, with the count cell number adjusted to 10^6/mL in a Neubauer chamber. Aliquots of the macrophages were cultivated on plates with 96 flat bottom wells, incubated with and without HB-1 compound diluted in Miglyol 810®. After 24 hours, the plates were submitted to the cytotoxic and antiproliferative effect assessment by the MTT calorimetric method.

[2] = tested on: promastigotes of Leishmania (isolate D.C.L.); experiment: Promastigote viability by MTT, D.C.L. isolate, Warren medium; assay type: cell-based; conditions: for O.D. (optical density at 595/690 nm wavelength): Warren medium
Description: (§1) Viability and/or cellular proliferative assays of promastigote and amastigote forms are also performed by the MTT (diphenyl tetrazolium 3-[4,5-dimethylthiazol-2il]2,5-bromide) method as described by Moreira, et al. (Moreira, M. E. C., Del Portillo, H. A., Milder, R. V., Balanco, J. M. F. and Barcinski, M. A. Heat shock induction of apoptosis in promastigotes of the unicellular organism Leishmania (Leishmania) amazonensis, J. Cell Physiol 167, 305-313, 1996), modified.
(§2) After incubation of parasitic forms with the compounds, as described above, for predetermined periods of time for each experiment (24, 48, 72 hours, etc.), an 1.0 mL aliquot of cellular suspension is collected from each culture tube or vial and transferred to microcentrifuge tubes, where they are centrifuged at 14.000 rpm for 3 minutes, the culture medium is aspirated and discharged. To the sedimented cells are add 200 μL of PBS. After that, the volume in PBS of the cellular suspensions is splitted into two wells (duplicates of 100 μL each) of a 96 well culture plate. To each duplicate, […] of MTT (5 mg/mL stock solution, […]) are added. After 1 h or 1 h 30 min, at a temperature of 22° C. (promastigotes) or 34° C. (amastigotes), 100 μL of 10% SDS are added to each well to interrupt the reaction, to lyse the cells and to dissolve the formazan crystals, resulting in an homogeneous blue solution appropriate to the absorbance measure by a spectrophotometer for culture microplates (3550 BIORAD model, Richmond, Calif.), at 595 nm as test wavelength and 690 nm as the reference wavelength.
(§3) The optical density (O.D.) values correspond to MTT enzymatic reduction by the metabolic active cells. Consequently, the O.D. is directly proportional to the number of viable cells of the cellular suspension. The progressive increase of O.D. indicates cellular proliferation. Results are expressed as arithmetic average of the optical density duplicates.
This experiment is developed in the Warren medium using an initial inoculum of 2.0×10^6/mL of the medium for the isolates. Cultures were at the day 7^h of passage and at the final exponential phase growth (day 6 of incubation). The results of viability determination for the Leishmania (isolate L.C.L.) promastigotes, incubated in Warren medium and in the presence of HB-1, are shown in the next Table and in FIG. 36. The culture final volume is of 5 mL and the MTT reactions are processed in 1 h and 30 minutes of incubation, beginning with 1.0 mL of culture.
In the next Table and in FIG. 37 are shown the results of viability determination for the promastigotes of Leishmania (isolate D.C.L.) incubated in Warren medium in the presence of HB-1.

[3] = tested on: amastigote-like forms of Leishmania (L) amazonensis; experiment: Viability of amastigote-like forms from axenic culture by MTT; assay type: cell-based; conditions: for O.D. (optical density): amastigote-like forms
Description: Compounds are solubilized with dimethyl sulfoxide (DMSO) to produce a stock solution from which samples with different concentrations are obtained, by adding the culture medium in sufficient volume as required to attain the first desired concentration with the other concentrations being obtained by serial dilution of this first one, at ratio 2. The cultures are incubated at 22° C. or 34° C. for promastigotes and amastigotes, respectively.
as §1, §2, §3
Considering that the amastigote forms are those that multiply inside a vertebrate host and, consequently, are responsible for the disease, it is indispensable to evaluate the viability of these forms when incubated with HB-1.
This evaluation is performed as previously described and by applying the amastigote forms obtained from an axenic culture.

Compound: COc1cc(C=CC(=O)C=Cc2ccc(O)c(OC)c2)ccc1O [HB-1, 1,5-Bis-(4-hydroxy-3-methoxy-phenyl)-penta-1,4-dien-3-one]
- tumoral cell population in the G0/G1 phase of the cell cycle (B16F10 melanoma): significantly reduces
- IC50 [1]: 16.9 µg/mL (≈ 51.8 µM)
- O.D. (optical density at 595/690 nm wavelength) ([2]; HB-1 5 μg/mL, 24 hours): 0.299
- O.D. (optical density at 595/690 nm wavelength) ([2]; HB-1 5 μg/mL, 48 hours): 0.682
- O.D. (optical density at 595/690 nm wavelength) ([2]; HB-1 5 μg/mL, 72 hours): 0.785
- O.D. (optical density at 595/690 nm wavelength) ([2]; HB-1 10 μg/mL, 24 hours): 0.083
- O.D. (optical density at 595/690 nm wavelength) ([2]; HB-1 10 μg/mL, 48 hours): 0.059
- O.D. (optical density at 595/690 nm wavelength) ([2]; HB-1 10 μg/mL, 72 hours): 0.017
- O.D. (optical density at 595/690 nm wavelength) ([2]; HB-1 10 μg/mL, 96 hours): 0.016
- O.D. (optical density at 595/690 nm wavelength) ([2]; HB-1 20 μg/mL, 24 hours): 0.025
- O.D. (optical density at 595/690 nm wavelength) ([2]; HB-1 20 μg/mL, 48 hours): 0.012
- O.D. (optical density at 595/690 nm wavelength) ([2]; HB-1 20 μg/mL, 72 hours): 0.016
- O.D. (optical density at 595/690 nm wavelength) ([2]; HB-1 20 μg/mL, 96 hours): 0.013
- effect in words ([2]; HB-1 from 10 μg/mL): leishmanicide effect
- inhibition of cellular activity of amastigotes ([3]; 10 μg/mL and 20 μg/mL, first 24 hours): 100%
- O.D. (optical density) ([3]; HB-1 5 μg/mL, 24 hours): 0.16
- O.D. (optical density) ([3]; HB-1 5 μg/mL, 48 hours): 0.012
- O.D. (optical density) ([3]; HB-1 5 μg/mL, 72 hours): 0.012
- O.D. (optical density) ([3]; HB-1 10 μg/mL, 24 hours): 0.010
- O.D. (optical density) ([3]; HB-1 10 μg/mL, 48 hours): 0.014
- O.D. (optical density) ([3]; HB-1 10 μg/mL, 72 hours): 0.014
- O.D. (optical density) ([3]; HB-1 20 μg/mL, 24 hours): 0.009
- O.D. (optical density) ([3]; HB-1 20 μg/mL, 48 hours): 0.012
- O.D. (optical density) ([3]; HB-1 20 μg/mL, 72 hours): 0.016
- parasites nonviable ([3]; all assayed concentrations, first 48 hours): 100%
